Data on 5 compounds can be found in patent US20250367166A1, “NEXT GENERATION DIPROVOCIMS THAT ACTIVATE THE INNATE AND ADAPTIVE IMMUNE RESPONSE” (The Scripps Research Institute, priority 2022, published 2025).

In test [1] the target is TLR1/TLR2 (Homo sapiens, UniProt O60603+Q15399). As to the kind of experiment: TNF-α release from PMA-differentiated human THP-1 cells (ELISA).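 As to all read-outs here: cells exposed to graded compound concentrations for 4 h, TNF-α quantified in supernatant, LPS as positive and DMSO as negative control, values are duplicate means.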 The following applies: for Emax: THP-1, 4 h, read-out: Efficacy (magnitude) of response versus diprovocim-1 (100%), THP-1; for EC50: read-out: EC50 (nM) (THP-1): EC50 TNF-α release from human THP-1 cells, Table 1. For orientation: ELISA stands for enzyme-linked immunosorbent assay.
TLR1/TLR2 (Homo sapiens, UniProt O60603+Q15399), sequence (Q15399 25-786): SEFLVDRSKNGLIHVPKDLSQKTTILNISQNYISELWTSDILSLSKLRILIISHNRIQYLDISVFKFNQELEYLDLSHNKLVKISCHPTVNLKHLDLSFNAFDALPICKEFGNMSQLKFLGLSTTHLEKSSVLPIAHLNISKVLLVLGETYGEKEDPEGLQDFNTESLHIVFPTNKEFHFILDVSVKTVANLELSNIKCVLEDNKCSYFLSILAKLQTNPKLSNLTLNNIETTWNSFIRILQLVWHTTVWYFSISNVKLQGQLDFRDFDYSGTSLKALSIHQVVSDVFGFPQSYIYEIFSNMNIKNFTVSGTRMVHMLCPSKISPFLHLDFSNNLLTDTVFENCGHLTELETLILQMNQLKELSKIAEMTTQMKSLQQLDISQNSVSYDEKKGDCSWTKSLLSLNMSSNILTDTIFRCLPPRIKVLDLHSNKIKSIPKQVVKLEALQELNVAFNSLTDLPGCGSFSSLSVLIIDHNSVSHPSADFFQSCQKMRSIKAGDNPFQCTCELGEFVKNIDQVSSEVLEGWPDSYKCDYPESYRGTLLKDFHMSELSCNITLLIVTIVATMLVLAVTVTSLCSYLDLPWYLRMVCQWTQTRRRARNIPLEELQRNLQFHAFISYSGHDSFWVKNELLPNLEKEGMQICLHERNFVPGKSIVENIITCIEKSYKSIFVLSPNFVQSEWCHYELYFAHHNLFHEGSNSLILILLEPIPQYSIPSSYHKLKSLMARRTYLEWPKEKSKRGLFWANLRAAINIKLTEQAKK
TLR1/TLR2 (Homo sapiens, UniProt O60603+Q15399), sequence (O60603 21-784): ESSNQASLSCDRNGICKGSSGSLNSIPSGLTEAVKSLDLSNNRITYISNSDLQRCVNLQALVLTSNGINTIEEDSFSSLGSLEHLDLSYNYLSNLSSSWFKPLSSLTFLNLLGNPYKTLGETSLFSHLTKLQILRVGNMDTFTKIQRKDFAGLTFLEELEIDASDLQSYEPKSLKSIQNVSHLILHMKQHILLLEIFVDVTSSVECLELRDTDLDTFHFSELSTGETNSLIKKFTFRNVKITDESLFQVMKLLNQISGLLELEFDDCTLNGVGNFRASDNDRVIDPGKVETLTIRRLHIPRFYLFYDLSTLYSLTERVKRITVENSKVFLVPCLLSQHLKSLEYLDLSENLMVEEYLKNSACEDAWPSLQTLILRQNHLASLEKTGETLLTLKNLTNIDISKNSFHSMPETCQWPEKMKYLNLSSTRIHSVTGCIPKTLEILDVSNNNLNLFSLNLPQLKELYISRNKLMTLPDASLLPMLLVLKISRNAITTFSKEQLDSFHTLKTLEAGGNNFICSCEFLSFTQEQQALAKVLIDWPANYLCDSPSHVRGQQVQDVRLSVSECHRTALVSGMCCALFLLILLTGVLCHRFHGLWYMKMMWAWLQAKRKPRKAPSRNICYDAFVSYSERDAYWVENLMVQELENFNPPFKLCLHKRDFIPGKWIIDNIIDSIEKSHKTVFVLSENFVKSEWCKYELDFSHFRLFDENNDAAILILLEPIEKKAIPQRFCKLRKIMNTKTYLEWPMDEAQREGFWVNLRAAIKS
Protocol: THP-1 (American Type Culture Collection) cells, a human monocytic leukemia cell line, were differentiated by treatment with 100 nM PMA (Sigma) in Roswell Park Memorial Institute (RPMI) cell culture medium [RPMI containing 10% vol/vol FBS (Gemini Bio Products), 1% penicillin and streptomycin (Life Technologies)] for 24 h. After that, the cells were washed with PBS and cultured in fresh RPMI cell culture medium for 24 h before use in studies. PMA-differentiated THP-1 cells were seeded onto 96-well plates at 0.5×10^5 cells per well and treated with systematically varied concentrations of the candidate compounds (dissolved in DMSO, and the final assay DMSO concentration (0.1%) was kept constant in all experiments) for 4 h. Ultra-pure LPS (dissolved in H2O, Enzo Life Sciences) was assessed alongside the compounds as a positive control and DMSO treated control was used as a negative control. Human TNF-α in the supernatants was measured by ELISA (eBioscience). This assay was used for establishing dose-response curves and measured EC50's. EC50's were calculated by Graphpad Prism. All data is the mean of duplicates and SD is within +10% of mean.

Test [2] deals with TLR1/TLR2 (Mus musculus, UniProt Q9EPQ1+Q9QUN7). As to the kind of experiment: TNF-α release from thioglycolate-elicited mouse peritoneal macrophages (ELISA). Conditions: for Emax: 4 h, read-out: Efficacy (magnitude) of response versus diprovocim-1 (100%), mouse macrophages; for EC50: read-out: EC50 (nM) (mouse): EC50 TNF-α release from mouse macrophages, Table 1.
TLR1/TLR2 (Mus musculus, UniProt Q9EPQ1+Q9QUN7), sequence (Q9EPQ1 26-795): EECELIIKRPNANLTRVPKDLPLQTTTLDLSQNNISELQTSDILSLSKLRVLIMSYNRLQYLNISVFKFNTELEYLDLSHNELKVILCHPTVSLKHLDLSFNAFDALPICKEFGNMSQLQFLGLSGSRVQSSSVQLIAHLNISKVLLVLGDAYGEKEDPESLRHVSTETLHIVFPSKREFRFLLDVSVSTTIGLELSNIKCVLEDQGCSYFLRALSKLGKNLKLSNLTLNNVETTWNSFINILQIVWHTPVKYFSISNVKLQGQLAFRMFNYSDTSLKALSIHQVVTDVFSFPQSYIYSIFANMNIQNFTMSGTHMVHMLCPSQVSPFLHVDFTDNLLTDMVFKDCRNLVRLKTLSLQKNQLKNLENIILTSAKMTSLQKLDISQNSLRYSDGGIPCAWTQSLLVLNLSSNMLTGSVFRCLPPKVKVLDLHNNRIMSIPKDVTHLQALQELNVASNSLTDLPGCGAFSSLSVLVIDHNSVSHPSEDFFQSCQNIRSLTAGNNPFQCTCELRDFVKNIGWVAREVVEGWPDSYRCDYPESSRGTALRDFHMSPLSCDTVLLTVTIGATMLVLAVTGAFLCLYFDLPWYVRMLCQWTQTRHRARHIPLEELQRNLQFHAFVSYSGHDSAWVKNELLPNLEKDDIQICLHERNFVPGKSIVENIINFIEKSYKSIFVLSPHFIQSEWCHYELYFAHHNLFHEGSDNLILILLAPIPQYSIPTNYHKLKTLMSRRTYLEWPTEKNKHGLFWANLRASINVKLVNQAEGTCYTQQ
TLR1/TLR2 (Mus musculus, UniProt Q9EPQ1+Q9QUN7), sequence (Q9QUN7 25-784): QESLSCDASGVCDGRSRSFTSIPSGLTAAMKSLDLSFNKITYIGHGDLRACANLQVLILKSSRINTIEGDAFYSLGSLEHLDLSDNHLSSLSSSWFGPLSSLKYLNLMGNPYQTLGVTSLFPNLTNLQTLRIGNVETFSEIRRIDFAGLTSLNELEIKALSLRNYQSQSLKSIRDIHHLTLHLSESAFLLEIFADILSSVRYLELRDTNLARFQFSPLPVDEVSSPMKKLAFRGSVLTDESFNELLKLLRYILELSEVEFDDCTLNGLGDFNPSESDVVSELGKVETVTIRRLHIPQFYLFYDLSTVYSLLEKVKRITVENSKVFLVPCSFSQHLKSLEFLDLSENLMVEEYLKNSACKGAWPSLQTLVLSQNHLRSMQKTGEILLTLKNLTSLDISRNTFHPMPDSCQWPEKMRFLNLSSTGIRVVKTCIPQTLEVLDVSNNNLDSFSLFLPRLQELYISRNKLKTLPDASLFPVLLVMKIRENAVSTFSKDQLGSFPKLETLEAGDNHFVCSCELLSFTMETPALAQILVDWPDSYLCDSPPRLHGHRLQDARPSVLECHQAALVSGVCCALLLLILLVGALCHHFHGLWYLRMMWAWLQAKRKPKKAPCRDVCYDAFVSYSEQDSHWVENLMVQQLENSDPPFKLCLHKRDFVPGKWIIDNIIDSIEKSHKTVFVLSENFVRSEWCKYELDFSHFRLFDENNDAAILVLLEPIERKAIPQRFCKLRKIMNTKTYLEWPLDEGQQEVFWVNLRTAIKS

On to `NCCCCCCCCCCCCNC(=O)[C@@H]1CN(C(=O)c2ccc(C(=O)N3C[C@@H](C(=O)N[C@H]4C[C@@H]4c4ccccc4)[C@H](C(=O)N[C@H]4C[C@@H]4c4ccccc4)C3)cc2)C[C@H]1C(=O)N[C@H]1C[C@@H]1c1ccccc1` [Compound 16, (3S,4S)—N^3-(12-Aminododecyl)-1-(4-((3S,4S)-3,4-bis-(((1S,2R)-2-phenylcyclopropyl)carbamoyl)-pyrrolidine-1-carbonyl)benzoyl)-N^4-((1S,2R)-2-phenylcyclopropyl)-pyrrolidine-3,4-dicarboxamide], for which, on TLR1/TLR2 [1], the Emax stood at 140% and the EC50 is 0.8 nM. Also, at TLR1/TLR2 [2], the Emax was found to be 130% and the EC50 stood at 10 nM.
On to `CC(C)(C)OC(=O)NCCCCCCCCCCCCNC(=O)[C@@H]1CN(C(=O)c2ccc(C(=O)N3C[C@@H](C(=O)N[C@H]4C[C@@H]4c4ccccc4)[C@H](C(=O)N[C@H]4C[C@@H]4c4ccccc4)C3)cc2)C[C@H]1C(=O)N[C@H]1C[C@@H]1c1ccccc1` [Compound 17, tert-Butyl (12-((3S,4S)-1-(4-((3S,4S)-3,4-bis(((1S,2R)-2-phenylcyclopropyl)carbamoyl)-pyrrolidine-1-carbonyl)benzoyl)-4-(((1S,2R)-2-phenylcyclopropyl)carbamoyl)pyrrolidine-3-carboxamido)dodecyl)carbamate], for which, on TLR1/TLR2 [1], the Emax amounted to 70% and the EC50 amounted to 0.18 nM. Moreover, at TLR1/TLR2 [2], the Emax worked out at 120% and the EC50 came out at 2.8 nM.
For `CC(C)(C)OC(=O)NCC(=O)NCCCCCCCCCCCCNC(=O)[C@@H]1CN(C(=O)c2ccc(C(=O)N3C[C@@H](C(=O)N[C@H]4C[C@@H]4c4ccccc4)[C@H](C(=O)N[C@H]4C[C@@H]4c4ccccc4)C3)cc2)C[C@H]1C(=O)N[C@H]1C[C@@H]1c1ccccc1` [Compound 18, tert-Butyl (2-((12-((3S,4S)-1-(4-((3S,4S)-3,4-bis-(((1S,2R)-2-phenylcyclopropyl)carbamoyl)pyrrolidine-1-carbonyl)-benzoyl)-4-(((1S,2R)-2-phenyl-cyclopropyl)-carbamoyl)pyrrolidine-3-carboxamido)-dodecyl)amino)-2-oxoethyl)carbamate], on TLR1/TLR2 [1], the Emax worked out at 90% and the EC50 came out at 0.33 nM. On TLR1/TLR2 [2], the Emax is 90% and the EC50 worked out at 170 nM.
As to `C#CCCCCCCCCCCCCNC(=O)[C@@H]1CN(C(=O)c2ccc(C(=O)N3C[C@@H](C(=O)N[C@H]4C[C@@H]4c4ccccc4)[C@H](C(=O)N[C@H]4C[C@@H]4c4ccccc4)C3)cc2)C[C@H]1C(=O)N[C@H]1C[C@@H]1c1ccccc1` [Compound 19, (3S,4S)-1-(4-((3S,4S)-3,4-Bis(((1S,2R)-2-phenylcyclo-propyl)carbamoyl)pyrrolidine-1-carbonyl)-benzoyl)-N^3-((1S,2R)-2-phenylcyclopropyl)-N^4-(tetradec-13-yn-1-yl)pyrrolidine-3,4-dicarboxamide], at TLR1/TLR2 [1], the Emax turned out to be 120% and the 50% effective concentration (EC50) amounted to 0.04 nM. Besides, at TLR1/TLR2 [2], the Emax turned out to be 180% and the EC50 was 1.3 nM.
For the compound `[N-]=[N+]=NCCCCCCCCCCCCNC(=O)[C@@H]1CN(C(=O)c2ccc(C(=O)N3C[C@@H](C(=O)N[C@H]4C[C@@H]4c4ccccc4)[C@H](C(=O)N[C@H]4C[C@@H]4c4ccccc4)C3)cc2)C[C@H]1C(=O)N[C@H]1C[C@@H]1c1ccccc1` [Compound 20, (3S,4S)—N^3-(12-Azidododecyl)-1-(4-((3S,4S)-3,4-bis-(((1S,2R)-2-phenylcyclopropyl)carbamoyl)-pyrrolidine-1-carbonyl)benzoyl)-N^4-((1S,2R)-2-phenylcyclopropyl)-pyrrolidine-3,4-dicarboxamide], on TLR1/TLR2 [1], the Emax was 30% and the EC50 turned out to be 0.07 nM. For the same compound, on TLR1/TLR2 [2], the Emax came out at 50% and the EC50 stood at 0.6 nM.

As a reminder, the EC50 is the concentration at which the effect is half-maximal.
